In PubChem BioAssay (NCI):
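These data come from cells grown in 96-well plates and exposed to compound for 48 hours at five concentrations. The concentration for full growth arrest is given as TGI.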

What was measured:
Assay in all cases: NCI anticancer screen, dose series, 48 h
K-562 leukemia = system: K-562 leukemia
HCC-2998 colon = system: HCC-2998 colon
M14 melanoma = system: M14 melanoma
RXF 393 renal = system: RXF 393 renal
EKVX NSCLC = system: EKVX NSCLC
SR leukemia = system: SR leukemia
SF-539 CNS = system: SF-539 CNS
SNB-78 CNS = system: SNB-78 CNS
DU-145 prostate = system: DU-145 prostate
MCF7 breast = system: MCF7 breast
T-47D breast = system: T-47D breast
SK-MEL-28 melanoma = system: SK-MEL-28 melanoma
SK-MEL-2 melanoma = system: SK-MEL-2 melanoma
NCI-H522 lung = system: NCI-H522 lung
CCRF-CEM leukemia = system: CCRF-CEM leukemia
SW-620 colon = system: SW-620 colon
HL-60(TB) leukemia = system: HL-60(TB) leukemia
OVCAR-5 ovarian = system: OVCAR-5 ovarian
SK-OV-3 ovarian = system: SK-OV-3 ovarian
MDA-N = system: MDA-N
SF-295 CNS = system: SF-295 CNS
KM20L2 colon = system: KM20L2 colon
RPMI-8226 leukemia = system: RPMI-8226 leukemia
COLO 205 colon = system: COLO 205 colon
DMS 273 small cell lung = system: DMS 273 small cell lung
TK-10 renal = system: TK-10 renal
SNB-75 CNS = system: SNB-75 CNS
DMS 114 small cell lung = system: DMS 114 small cell lung
HOP-92 NSCLC = system: HOP-92 NSCLC
OVCAR-8 ovarian = system: OVCAR-8 ovarian
A549 NSCLC = system: A549 NSCLC
HT29 colon = system: HT29 colon
SF-268 CNS = system: SF-268 CNS
HOP-62 NSCLC = system: HOP-62 NSCLC
UACC-257 melanoma = system: UACC-257 melanoma
UACC-62 melanoma = system: UACC-62 melanoma
DLD-1 colon = system: DLD-1 colon
HOP-18 NSCLC = system: HOP-18 NSCLC
KM12 colon = system: KM12 colon
SK-MEL-5 melanoma = system: SK-MEL-5 melanoma
HS 578T breast = system: HS 578T breast
HCT-116 colon = system: HCT-116 colon
CAKI-1 renal = system: CAKI-1 renal
A498 renal = system: A498 renal
UO-31 renal = system: UO-31 renal
ACHN renal = system: ACHN renal
NCI/ADR-RES ovarian = system: NCI/ADR-RES ovarian
HCT-15 colon = system: HCT-15 colon
OVCAR-4 ovarian = system: OVCAR-4 ovarian
SN12C renal = system: SN12C renal
PC-3 prostate = system: PC-3 prostate
MOLT-4 leukemia = system: MOLT-4 leukemia
MALME-3M melanoma = system: MALME-3M melanoma
SNB-19 CNS = system: SNB-19 CNS
U251 CNS = system: U251 CNS
IGROV1 ovarian = system: IGROV1 ovarian
786-0 renal = system: 786-0 renal
RXF-631 renal = system: RXF-631 renal
NCI-H23 lung = system: NCI-H23 lung
LOX IMVI melanoma = system: LOX IMVI melanoma
OVCAR-3 ovarian = system: OVCAR-3 ovarian
LXFL 529 NSCLC = system: LXFL 529 NSCLC
XF 498 CNS = system: XF 498 CNS
NCI-H460 lung = system: NCI-H460 lung
NCI-H226 lung = system: NCI-H226 lung
M19-MEL melanoma = system: M19-MEL melanoma

**Q.** Which results are given for `COc1cc(CC(C)N)ccc1O` (stereo not drawn)?
**A.** TGI (K-562 leukemia): > 100 µM; TGI (HCC-2998 colon): > 100 µM; TGI (M14 melanoma): > 100 µM; TGI (RXF 393 renal): > 100 µM; TGI (EKVX NSCLC): > 100 µM; TGI (SR leukemia): > 100 µM; TGI (SF-539 CNS): > 100 µM; TGI (SNB-78 CNS): > 100 µM; TGI (DU-145 prostate): > 100 µM; TGI (MCF7 breast): > 100 µM; TGI (T-47D breast): > 100 µM; TGI (SK-MEL-28 melanoma): > 100 µM; TGI (SK-MEL-2 melanoma): > 100 µM; TGI (NCI-H522 lung): > 100 µM; TGI (CCRF-CEM leukemia): > 31.6 µM; TGI (SW-620 colon): > 100 µM; TGI (HL-60(TB) leukemia): > 100 µM; TGI (OVCAR-5 ovarian): > 100 µM; TGI (SK-OV-3 ovarian): > 100 µM; TGI (MDA-N): > 100 µM; TGI (SF-295 CNS): > 100 µM; TGI (KM20L2 colon): > 100 µM; TGI (RPMI-8226 leukemia): > 100 µM; TGI (COLO 205 colon): > 100 µM; TGI (DMS 273 small cell lung): > 100 µM; TGI (TK-10 renal): > 100 µM; TGI (SNB-75 CNS): > 100 µM; TGI (DMS 114 small cell lung): > 100 µM; TGI (HOP-92 NSCLC): > 100 µM; TGI (OVCAR-8 ovarian): > 100 µM; TGI (A549 NSCLC): > 100 µM; TGI (HT29 colon): > 100 µM; TGI (SF-268 CNS): > 100 µM; TGI (HOP-62 NSCLC): > 100 µM; TGI (UACC-257 melanoma): > 100 µM; TGI (UACC-62 melanoma): > 100 µM; TGI (DLD-1 colon): > 100 µM; TGI (HOP-18 NSCLC): > 100 µM; TGI (KM12 colon): > 100 µM; TGI (SK-MEL-5 melanoma): > 100 µM; TGI (HS 578T breast): > 100 µM; TGI (HCT-116 colon): > 100 µM; TGI (CAKI-1 renal): > 100 µM; TGI (A498 renal): > 100 µM; TGI (UO-31 renal): > 100 µM; TGI (ACHN renal): > 100 µM; TGI (NCI/ADR-RES ovarian): > 100 µM; TGI (HCT-15 colon): > 100 µM; TGI (OVCAR-4 ovarian): > 100 µM; TGI (SN12C renal): > 100 µM; TGI (PC-3 prostate): > 100 µM; TGI (MOLT-4 leukemia): > 100 µM; TGI (MALME-3M melanoma): > 100 µM; TGI (SNB-19 CNS): > 100 µM; TGI (U251 CNS): > 100 µM; TGI (IGROV1 ovarian): > 100 µM; TGI (786-0 renal): > 100 µM; TGI (RXF-631 renal): > 100 µM; TGI (NCI-H23 lung): > 100 µM; TGI (LOX IMVI melanoma): > 100 µM; TGI (OVCAR-3 ovarian): > 100 µM; TGI (LXFL 529 NSCLC): > 100 µM; TGI (XF 498 CNS): > 100 µM; TGI (NCI-H460 lung): > 100 µM; TGI (NCI-H226 lung): > 100 µM

**Q.** How did the TGI (K-562 leukemia) turn out when `N#CC(C(=O)CCC(=O)Nc1cccc(C(F)(F)F)c1)c1ccc(Cl)cc1` (stereo not drawn) was run?
**A.** > 100 µM

**Q.** What about the TGI (HCC-2998 colon) of the same molecule?
**A.** > 100 µM

**Q.** What about the TGI (M14 melanoma) of the same molecule?
**A.** > 100 µM

**Q.** What about the TGI (EKVX NSCLC) of the same molecule?
**A.** > 100 µM

**Q.** What about the TGI (SF-539 CNS) of the same molecule?
**A.** > 100 µM

**Q.** And the TGI (SNB-78 CNS)?
**A.** > 100 µM

**Q.** What about the TGI (M19-MEL melanoma) of the same molecule?
**A.** > 100 µM

**Q.** And the TGI (NCI-H522 lung)?
**A.** > 100 µM

**Q.** And the TGI (CCRF-CEM leukemia)?
**A.** > 100 µM

**Q.** And the TGI (SW-620 colon)?
**A.** > 100 µM

**Q.** And the TGI (HL-60(TB) leukemia)?
**A.** > 100 µM

**Q.** And the TGI (OVCAR-5 ovarian)?
**A.** > 100 µM

**Q.** And the TGI (SK-OV-3 ovarian)?
**A.** > 100 µM

**Q.** And the TGI (SF-295 CNS)?
**A.** > 100 µM

**Q.** What about the TGI (KM20L2 colon) of the same molecule?
**A.** > 100 µM

**Q.** And the TGI (RPMI-8226 leukemia)?
**A.** > 100 µM

**Q.** What about the TGI (COLO 205 colon) of the same molecule?
**A.** > 100 µM

**Q.** And the TGI (DMS 273 small cell lung)?
**A.** > 100 µM

**Q.** What about the TGI (TK-10 renal) of the same molecule?
**A.** > 100 µM

**Q.** And the TGI (HOP-92 NSCLC)?
**A.** > 100 µM

**Q.** And the TGI (OVCAR-8 ovarian)?
**A.** > 100 µM

**Q.** What about the TGI (A549 NSCLC) of the same molecule?
**A.** > 100 µM

**Q.** What about the TGI (HT29 colon) of the same molecule?
**A.** > 100 µM

**Q.** And the TGI (SF-268 CNS)?
**A.** > 100 µM

**Q.** And the TGI (HOP-62 NSCLC)?
**A.** > 100 µM

**Q.** And the TGI (UACC-257 melanoma)?
**A.** > 100 µM

**Q.** And the TGI (UACC-62 melanoma)?
**A.** > 100 µM

**Q.** What about the TGI (DLD-1 colon) of the same molecule?
**A.** > 100 µM

**Q.** What about the TGI (HOP-18 NSCLC) of the same molecule?
**A.** > 100 µM

**Q.** What about the TGI (KM12 colon) of the same molecule?
**A.** > 100 µM

**Q.** And the TGI (SK-MEL-5 melanoma)?
**A.** > 100 µM

**Q.** And the TGI (HCT-116 colon)?
**A.** > 100 µM

**Q.** What about the TGI (CAKI-1 renal) of the same molecule?
**A.** > 100 µM

**Q.** What about the TGI (A498 renal) of the same molecule?
**A.** > 100 µM

**Q.** And the TGI (UO-31 renal)?
**A.** > 100 µM

**Q.** What about the TGI (ACHN renal) of the same molecule?
**A.** > 100 µM

**Q.** What about the TGI (HCT-15 colon) of the same molecule?
**A.** > 100 µM

**Q.** And the TGI (OVCAR-4 ovarian)?
**A.** > 100 µM

**Q.** And the TGI (SN12C renal)?
**A.** > 100 µM

**Q.** What about the TGI (MOLT-4 leukemia) of the same molecule?
**A.** > 100 µM

**Q.** What about the TGI (MALME-3M melanoma) of the same molecule?
**A.** > 100 µM

**Q.** And the TGI (SNB-19 CNS)?
**A.** > 100 µM

**Q.** And the TGI (U251 CNS)?
**A.** > 100 µM

**Q.** What about the TGI (IGROV1 ovarian) of the same molecule?
**A.** > 100 µM

**Q.** And the TGI (786-0 renal)?
**A.** > 100 µM

**Q.** And the TGI (RXF-631 renal)?
**A.** > 100 µM

**Q.** And the TGI (NCI-H23 lung)?
**A.** > 100 µM

**Q.** And the TGI (LOX IMVI melanoma)?
**A.** > 100 µM

**Q.** What about the TGI (OVCAR-3 ovarian) of the same molecule?
**A.** > 100 µM

**Q.** And the TGI (LXFL 529 NSCLC)?
**A.** > 100 µM

**Q.** And the TGI (XF 498 CNS)?
**A.** > 100 µM

**Q.** And the TGI (NCI-H460 lung)?
**A.** > 100 µM

**Q.** And the TGI (NCI-H226 lung)?
**A.** > 100 µM
